According to ChEMBL document CHEMBL4118035, “Total Synthesis of the Claimed Structure of (±)-Hyptinin and Structural Revision of Natural Hyptinin” (J Nat Prod, 2017):
pIC50: −log10 of the molar value.

Test: Growth inhibition of ATL patient-derived S1T cells after 72 hrs by WST-8 assay
Format: functional
Conditions: Homo sapiens

SMILES	pIC50
COc1cc(C2C3=C(Cc4c2cc2c(c4OC)OCO2)C(=O)OC3)cc(OC)c1OC (configuration not stated)	8.15
COc1cc(C2C3=C(Cc4cc5c(cc42)OCO5)C(=O)OC3)cc(OC)c1OC (configuration not stated)	8.29
